The nature of series [1]: Metabolic stability in liver microsomes, dog. The format is in vitro ADME. As to the method: The metabolic stability of compound (I) was tested in liver microsomes from all in house available species at 1 and 5 μM. One metabolite of 16 mass units higher than parent, was found in all incubations, except with human liver microsomes.
Background: Liver microsomes are vesicles of endoplasmic reticulum, rich in cytochrome P450 enzymes.

Series [2] deals with NMRI mice. In words: Mouse stress-induced hyperthermia test (mSIH). The format is in vivo. Here is the method: FIG. 14: Stress-induced hyperthermia. When mice are confronted with a stress-full event, the body temperature rises.
Compound (I) was tested in three widely used behavioural screens for predicting anxiolytic effects in the clinic: the mouse marble burying test (mMB), mouse zero maze (mZM) and mouse stress-induced hyperthermia test (mSIH).

Series [3] addresses CYP 2C19 (Homo sapiens, UniProt P33261). As to the kind of experiment: CYP450 inhibition, cocktail of selective substrates, 2C19. The format is in vitro ADME. The settings on record: CYP 2C19, Omeprazole to 5-hydroxyomeprazole; read-out: IC50 of compound (I). As to the method: Compound (I) was tested for CYP450 inhibition using a cocktail of selective substrates. […] This might be addressed later in a clinical study.

For series [4], the target named is DA transporter (Rattus norvegicus, UniProt P23977). As to the kind of experiment: ^3H-uptake rat, DA transporter. It is filed as biochemical. An excerpt: (§1) Compound (I) has been characterized as a monoamine reuptake inhibitor, based on the profile in a series of functional assays (Table 2).
Series [5] deals with 5-HT transporter (Homo sapiens, UniProt P31645). In words: ^3H-uptake human, 5-HT transporter. The format is biochemical.
From the text: as §1

Series [6] relates to brain levels of noradrenalin (NA). In words: In vivo microdialysis, NA. Details: species or system rat. As to the method: The purpose of the present study was to examine, by in vivo microdialysis technique, the effects after administration of compound (I) on brain levels of serotonin, noradrenalin and dopamine within the ventral hippocampus (Hipp), prefrontal cortex (PFC), striatum (STR) and nucleus accumbens (N.Acc) of anaesthetized rats and mice. Compound (I) represents dual acting serotonin/dopamine reuptake inhibitors and was tested in comparison to citalopram a selective serotonin uptake inhibitor. Compound (I) was tested following subcutaneous injections at dose levels between 0.25-30 mg/kg. […] Pre-treatment with the 5-HT1A autoreceptor antagonist WAY-100635 induced a further minor increase of the compound (I) (0.25 mg/kg) induced increase in the PFC level of 5-HT.

Series [7] deals with mice erectile tissue. As to the kind of experiment: Penile flow by laser doppler in mice. It is filed as in vivo, mouse. Here is the method:
FIG. 33: Flow laser doppler raw data from mice erectile function (top), and average flow changes (EF) in mice erectile tissue (bottom). The increase in penile flow induced by compound (I) (1 mg/kg) was highly significant and increased 4.99 times, n=2.
A laser doppler flow probe was positioned in situ in mice erectile tissue for measurement of penile basal flow in the absence and the presence of compound (I).

Series [8] concerns anesthetized rats. As to the kind of experiment: Induction of erection in anesthetized rats (intracavernous pressure). It is filed as in vivo, rat. Here is the method: FIG. 25: Average spontaneous increases in (A) intracavernous pressure, (B) duration and (C) frequency of these events after infusion of the compound (I) (1 mg/kg) in young (6 week old male Wistar rats) and old (14-16 week old male rats) rats. Results are means±s.e. mean.
FIG. 26: Average rises in number of spontaneous erections measured as intracavernous pressure (ICP) after infusion of, respectively, 0.001 mg/kg, 0.01 mg/kg, 0.1 mg/kg, and 1 mg/kg compound (I) in anesthetized rats (n=4-6).
FIG. 27: Average effect of (A) vehicle (n=5), and compound (I) on mean arterial pressure (MAP) and erectile response measured as peak intracavernous pressure (PICP) over MAP (PICP/MAP) in anesthetized (B) 6 week old male Wistar rats (n=6), and (C) 14-16 week old male rats (n=6). Vehicle and compound (I) were administered after establishing the maximal (10 Hz, 1 ms, 6 V) and submaximal (submax) responses (10 Hz, 1 ms, 0.6-1.55 V) to cavernous nerve stimulation for 30 s. Submaximal stimulation was repeated 3, 13, 23, and 33 min after drug or vehicle administration. Upper traces show the mean arterial pressure (MAP), bars represent the erectile response ((PICP/MAP)·100), where PICP is the peak intracavernous pressure. […]
Compound (I) was administered intravenously to rats in dosages of 0.001, 0.01, 0.1, and 1.0 mg/kg, and the number of spontaneous erections was measured. […]

Broadly, the IC50 is the midpoint of a concentration-inhibition curve. As usually defined, the Ki is the dissociation constant of the complex between target and ligand, obtained from inhibition or displacement.

Sequence of 5-HT transporter (P31645 whole entry): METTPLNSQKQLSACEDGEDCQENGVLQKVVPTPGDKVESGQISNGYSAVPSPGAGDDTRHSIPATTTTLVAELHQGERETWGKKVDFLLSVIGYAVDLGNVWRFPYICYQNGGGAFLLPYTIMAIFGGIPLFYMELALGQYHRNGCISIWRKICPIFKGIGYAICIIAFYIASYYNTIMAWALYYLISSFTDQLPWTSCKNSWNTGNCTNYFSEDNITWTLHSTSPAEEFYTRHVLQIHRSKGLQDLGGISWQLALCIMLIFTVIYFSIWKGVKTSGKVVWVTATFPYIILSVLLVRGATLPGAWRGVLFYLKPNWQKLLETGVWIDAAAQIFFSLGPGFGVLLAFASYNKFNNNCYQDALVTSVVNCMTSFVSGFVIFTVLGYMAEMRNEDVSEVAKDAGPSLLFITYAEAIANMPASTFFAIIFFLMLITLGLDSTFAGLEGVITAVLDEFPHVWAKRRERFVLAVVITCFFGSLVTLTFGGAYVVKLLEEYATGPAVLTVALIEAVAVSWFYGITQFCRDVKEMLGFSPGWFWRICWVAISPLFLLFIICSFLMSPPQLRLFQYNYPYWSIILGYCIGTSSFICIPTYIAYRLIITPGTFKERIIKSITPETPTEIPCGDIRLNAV
Sequence of CYP 2C19 (P33261 whole entry): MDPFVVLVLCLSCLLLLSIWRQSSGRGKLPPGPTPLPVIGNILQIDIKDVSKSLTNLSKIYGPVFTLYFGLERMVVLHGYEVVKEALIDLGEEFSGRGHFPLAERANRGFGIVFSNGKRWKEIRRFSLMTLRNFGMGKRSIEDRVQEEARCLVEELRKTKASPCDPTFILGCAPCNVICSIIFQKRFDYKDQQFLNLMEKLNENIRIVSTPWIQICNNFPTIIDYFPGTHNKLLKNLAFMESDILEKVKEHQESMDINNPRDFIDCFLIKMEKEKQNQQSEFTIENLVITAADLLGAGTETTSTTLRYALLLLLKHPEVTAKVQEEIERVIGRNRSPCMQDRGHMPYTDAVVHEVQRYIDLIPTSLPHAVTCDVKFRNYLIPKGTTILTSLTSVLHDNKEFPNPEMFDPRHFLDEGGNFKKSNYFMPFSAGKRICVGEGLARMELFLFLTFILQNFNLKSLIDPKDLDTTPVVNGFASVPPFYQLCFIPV
Sequence of DA transporter (P23977 whole entry): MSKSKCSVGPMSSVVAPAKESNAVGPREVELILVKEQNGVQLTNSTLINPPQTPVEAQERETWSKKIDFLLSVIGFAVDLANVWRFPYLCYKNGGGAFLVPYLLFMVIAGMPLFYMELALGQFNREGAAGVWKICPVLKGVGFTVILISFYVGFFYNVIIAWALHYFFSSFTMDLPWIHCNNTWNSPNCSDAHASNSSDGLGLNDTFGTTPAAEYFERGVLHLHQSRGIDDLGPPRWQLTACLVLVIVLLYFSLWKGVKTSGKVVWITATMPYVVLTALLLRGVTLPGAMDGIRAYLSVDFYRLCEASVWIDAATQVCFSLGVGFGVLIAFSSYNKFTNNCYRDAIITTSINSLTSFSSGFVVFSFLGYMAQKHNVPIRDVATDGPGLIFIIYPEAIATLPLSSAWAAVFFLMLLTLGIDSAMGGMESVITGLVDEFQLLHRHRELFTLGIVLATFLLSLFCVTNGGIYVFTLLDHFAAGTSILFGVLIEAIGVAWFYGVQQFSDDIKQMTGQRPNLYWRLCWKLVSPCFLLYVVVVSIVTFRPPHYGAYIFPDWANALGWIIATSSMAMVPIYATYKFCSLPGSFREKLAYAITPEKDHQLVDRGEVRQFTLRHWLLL

For the compound `O=c1ccc2ccc(O[C@@H]3C[C@H]4CC[C@@H](C3)N4)cc2o1` [Compound (I), exo-7-(8-aza-bicyclo[3.2.1]oct-3-yloxy)-chromen-2-one], the “Stability at 1 μM” value in series [1] is 100%. The “Stability at 5 μM” value in series [1] was 90%. Also, the “Body temperature in resting conditions” value in series [2] (0.1, 1 and 3 mg/kg per oral, NMRI mice) is “did not change body temperature in resting conditions”. Also, the Stress-induced temperature rise result in series [2] (0.1, 1 and 3 mg/kg per oral, NMRI mice, all three doses) is “temperature rise was significantly prevented”. The MED in series [2] (mSIH, p.o., −60 min) came out at 0.3 mg/kg. Further, the IC50 in series [3] is over 100000 nM; in series [4] it was 260 nM; in series [5] it was 1.8 nM. The same compound showed an inhibitory constant (Ki) in series [5] of 2 nM. For the same compound, the Human transporter ratio in series [5] (5-HT (reference = 1)) was determined as 1. Moreover, the “NA (AUC0-160 min)” value in series [6] (Hippocampus, 3 mg/kg s.c., 3 mg/kg) was 138±13%; in series [6] (Pre-frontal cortex, 10 mg/kg s.c., 10 mg/kg), 135±4%. The “Increase in penile flow” value in series [7] (1 mg/kg, n=2) is 4.99 times. For the same compound, the Penile flow entry in series [7] (infusion of 1 mg/kg) is “markedly increased”. In series [8] (1 mg/kg), the Induction of erection entry is “induce erection in both young and adult rats”. In addition, the “Number of spontaneous erections versus dose” value in series [8] (intravenously 0.001, 0.01, 0.1 and 1.0 mg/kg) is on record as “increased with increasing dosage from 0.001 to 0.1 mg/kg, but decreased abruptly at a dose of 1.0 mg/kg”.
